Assay results from patent US8563505B2, “Hepatitis C virus inhibitors” (priority 2008, dated 2013).

How the values were obtained:
[1] = target: T1, HCV NS3/4A protease complex (Hepatitis C virus genotype 1a, UniProt P27958, C1454S/C1711G); assay: FRET peptide assay to monitor HCV NS3/4A proteolytic activity; format: biochemical; details: NS3/4A strain not stated
T1 construct: DNA encoding the recombinant HCV NS3/4A protease complex (amino acids 1027 to 1711) for these strains; inferred from pET21b vector and Ni-NTA purification) (C); made in house; host or cells: Escherichia coli BL21 (DE3), pET21b
T1 sequence (P27958 1027-1711 C1454S/C1711G, one chain of several): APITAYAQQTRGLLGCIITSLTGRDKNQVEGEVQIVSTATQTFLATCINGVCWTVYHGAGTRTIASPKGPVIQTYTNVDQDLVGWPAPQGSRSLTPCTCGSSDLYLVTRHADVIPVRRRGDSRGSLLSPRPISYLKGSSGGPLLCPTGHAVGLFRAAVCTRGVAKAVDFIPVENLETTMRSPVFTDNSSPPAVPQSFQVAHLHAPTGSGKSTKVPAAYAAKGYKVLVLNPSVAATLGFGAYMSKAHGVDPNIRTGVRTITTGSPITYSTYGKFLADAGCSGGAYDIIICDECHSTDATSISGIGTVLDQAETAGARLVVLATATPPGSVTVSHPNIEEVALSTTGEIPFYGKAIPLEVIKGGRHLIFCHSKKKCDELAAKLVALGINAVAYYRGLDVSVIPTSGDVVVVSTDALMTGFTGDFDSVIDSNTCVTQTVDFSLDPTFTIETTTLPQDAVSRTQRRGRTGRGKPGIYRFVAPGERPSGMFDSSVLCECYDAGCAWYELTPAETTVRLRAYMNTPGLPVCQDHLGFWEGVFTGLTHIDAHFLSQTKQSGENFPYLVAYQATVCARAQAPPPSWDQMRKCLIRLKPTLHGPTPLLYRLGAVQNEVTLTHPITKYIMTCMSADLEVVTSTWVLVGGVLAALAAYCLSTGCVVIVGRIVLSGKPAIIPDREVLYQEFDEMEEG
Text: HCV NS3 protease complexes, derived from the BMS strain, H77 strain or J4L6S strain, were generated, as described below. These purified recombinant proteins were generated for use in a homogeneous assay (see below) to provide an indication of how effective compounds of the present disclosure would be in inhibiting HCV NS3 proteolytic activity.
The H77 and J4L6S strains were used for production of recombinant NS3/4A protease complexes. DNA encoding the recombinant HCV NS3/4A protease complex (amino acids 1027 to 1711) for these strains was manipulated as described by P. Gallinari et al. (see Gallinari P, Paolini C, Brennan D, Nardi C, Steinkuhler C, De Francesco R. Biochemistry. 38(17):5620-32, (1999)). Briefly, a three-lysine solubilizing tail was added at the 3′-end of the NS4A coding region. The cysteine in the P1 position of the NS4A-NS4B cleavage site (amino acid 1711) was changed to a glycine to avoid the proteolytic cleavage of the lysine tag. Furthermore, a cysteine to serine mutation was introduced by PCR at amino acid position 1454 to prevent the autolytic cleavage in the NS3 helicase domain. The variant DNA fragment was cloned in the pET21b bacterial expression vector (Novagen) and the NS3/4A complex was expressed in Escherichia coli strain BL21 (DE3) (Invitrogen) following the protocol described by P. Gallinari et al. (see Gallinari P, Brennan D, Nardi C, Brunetti M, Tomei L, Steinkuhler C, De Francesco R., J Virol. 72(8):6758-69 (1998)) with modifications. Briefly, the NS3/4A protease complex expression was induced with 0.5 millimolar (mM) Isopropyl β-D-1-thiogalactopyranoside (IPTG) for 22 hours (h) at 20° C. A typical fermentation (1 Liter (L)) yielded approximately 10 grams (g) of wet cell paste. The cells were resuspended in lysis buffer (10 mL/g) consisting of 25 mM N-(2-Hydroxyethyl)Piperazine-N′-(2-Ethane Sulfonic acid) (HEPES), pH 7.5, 20% glycerol, 500 mM Sodium Chloride (NaCl), 0.5% Triton X-100, 1 microgram/milliliter ([…]) lysozyme, 5 mM Magnesium Chloride (MgCl2), 1 μg/ml DnaseI, 5 mM […] (βME), Protease inhibitor-Ethylenediamine Tetraacetic acid (EDTA) free (Roche), homogenized and incubated for 20 minutes (min) at 4° C. The homogenate was sonicated and clarified by ultra-centrifugation at 235000 g for 1 hour (h) at 4° C. Imidazole was added to the supernatant to a final concentration of 15 mM and the pH adjusted to 8.0. The crude protein extract was loaded on a Nickel-Nitrilotriacetic acid (Ni-NTA) column pre-equilibrated with buffer B (25 mM HEPES, pH 8.0, 20% glycerol, 500 mM NaCl, 0.5% Triton X-100, 15 mM imidazole, 5 mM βME). The sample was loaded at a flow rate of 1 mL/min. The column was washed with 15 column volumes of buffer C (same as buffer B except with 0.2% Triton X-100). The protein was eluted with 5 column volumes of buffer D (same as buffer C except with 200 mM Imidazole).
NS3/4A protease complex-containing fractions were pooled and loaded on a desalting column Superdex-S200 pre-equilibrated with buffer D (25 mM HEPES, pH 7.5, 20% glycerol, 300 mM NaCl, 0.2% Triton X-100, 10 mM (βME). Sample was loaded at a flow rate of 1 mL/min. NS3/4A protease complex-containing fractions were pooled and concentrated to approximately 0.5 mg/ml. The purity of the NS3/4A protease complexes, derived from the BMS, H77 and J4L6S strains, were judged to be greater than 90% by SDS-PAGE and mass spectrometry analyses. The enzyme was stored at −80° C., thawed on ice and diluted prior to use in assay buffer.
The purpose of this in vitro assay was to measure the inhibition of HCV NS3 protease complexes, derived from the BMS strain, H77 strain or J4L6S strain, as described above, by compounds of the present disclosure. This assay provides an indication of how effective compounds of the present disclosure would be in inhibiting HCV NS3 proteolytic activity.
In order to monitor HCV NS3/4A protease activity, an NS3/4A peptide substrate was used. […]

[2] = tested on: HCV replicon in HUH-7 cells; assay: HCV replicon assay (FRET, confirmed by luciferase reporter); format: cell-based, Hepatitis C virus (strain 1b); details: Hepatitis C virus, 96 h, HUH-7 replicon cells, 4 days
Text: An HCV replicon whole cell system was established as described by Lohmann V, Korner F, Koch J, Herian U, Theilmann L, Bartenschlager R., Science 285(5424):110-3 (1999). This system enabled us to evaluate the effects of our HCV Protease compounds on HCV RNA replication. Briefly, using the HCV strain 1b sequence described in the Lohmann paper (Assession number: AJ238799), an HCV cDNA was synthesized by Operon Technologies, Inc. (Alameda, Calif.), and the full-length replicon was then assembled in plasmid pGem9zf(+) (Promega, Madison, Wis.) using standard molecular biology techniques. The replicon consists of (i) the HCV 5′ UTR fused to the first 12 amino acids of the capsid protein, (ii) the neomycin phosphotransferase gene (neo), (iii) the IRES from encephalomyocarditis virus (EMCV), and (iv) HCV NS3 to NS5B genes and the HCV 3′ UTR. Plasmid DNAs were linearized with Seal and RNA transcripts were synthesized in vitro using the T7 MegaScript transcription kit (Ambion, Austin, Tex.) according to manufacturer's directions. In vitro transcripts of the cDNA were transfected into the human hepatoma cell line, HUH-7. […] Resulting cell lines were characterized for positive and negative strand RNA production and protein production over time.
The HCV replicon FRET assay was developed to monitor the inhibitory effects of compounds described in the disclosure on HCV viral replication. HUH-7 cells, constitutively expressing the HCV replicon, were grown in Dulbecco's Modified Eagle Media (DMEM) (Gibco-BRL) containing 10% Fetal calf serum (FCS) (Sigma) and 1 mg/ml G418 (Gibco-BRL). Cells were seeded the night before (1.5×10^4 cells/well) in 96-well tissue-culture sterile plates. Compound and no compound controls were prepared in DMEM containing 4% FCS, 1:100 Penicillin/Streptomysin (Gibco-BRL), 1:100 L-glutamine and 5% DMSO in the dilution plate (0.5% DMSO final concentration in the assay). Compound/DMSO mixes were added to the cells and incubated for 4 days at 37° C. After 4 days, cells were first assessed for cytotoxicity using alamar Blue (Trek Diagnostic Systems) for a CC50 reading. The toxicity of compound (CC50) was determined by adding 1/10th volume of alamar Blue to the media incubating the cells. After 4 h, the fluorescence signal from each well was read, with an excitation wavelength at 530 nm and an emission wavelength of 580 nm, using the Cytofluor Series 4000 (Perspective Biosystems). Plates were then rinsed thoroughly with Phosphate-Buffered Saline (PBS) (3 times 150 μl).
As a secondary assay, EC50 determinations from the replicon FRET assay were confirmed in a replicon luciferase reporter assay. Utilization of a replicon luciferase reporter assay was first described by Krieger et al (Krieger N, Lohmann V, and Bartenschlager R, J. Viral. 75(10):4614-4624 (2001)). The replicon construct described for our FRET assay was modified by inserting cDNA encoding a humanized form of the Renilla luciferase gene and a linker sequence fused directly to the 3′-end of the luciferase gene. This insert was introduced into the replicon construct using an Asc1 restriction site located in core, directly upstream of the neomycin marker gene. The adaptive mutation at position 1179 (serine to isoleucine) was also introduced (Blight K J, Kolykhalov, A A, Rice, C M, Science 290(5498):1972-1974). A stable cell line constitutively expressing this HCV replicon construct was generated as described above. The luciferase reporter assay was set up as described for the HCV replicon FRET assay with the following modifications. Following 4 days in a 37° C./5% CO2 incubator, cells were analyzed for Renilla Luciferase activity using the Promega Dual-Glo Luciferase Assay System. Media (100 μl) was removed from each well containing cells. To the remaining 50 μl of media, 50 μl of Dual-Glo Luciferase Reagent was added, and plates rocked for 10 min to 2 h at room temperature. […]

Compound	IC50 ([1]; numeric values)	EC50 ([2]; numeric values)	IC50 ([1]; class symbols)	EC50 ([2]; class symbols)
C=C[C@@H]1C[C@]1(NC(=O)[C@@H]1C[C@]2(OC)CN1C(=O)[C@H](C(C)(C)C)NC(=O)OCCCCCCc1ccccc1-c1ccc2cc1)C(=O)NS(=O)(=O)C1CC1 [Example 1]	1 nM	5 nM		
CO[C@@]12C[C@@H](C(=O)N[C@]3(C(=O)NS(=O)(=O)C4CC4)C[C@H]3C3CC3)N(C1)C(=O)[C@H](C(C)(C)C)NC(=O)OCCCCCCc1ccccc1-c1ccc2cc1 [Example 2]	1.5 nM	16 nM		
CO[C@@]12C[C@@H](C(=O)N[C@]3(C(=O)NS(=O)(=O)C4CC4)C[C@H]3C3CC3)N(C1)C(=O)[C@H](C(C)(C)C)NC(=O)OCCC(C)(C)CCCc1ccccc1-c1ccc2cc1 [Example 3]			4 to 7 nM	21 to 30 nM
C=C[C@@H]1C[C@]1(NC(=O)[C@@H]1C[C@]2(OC)CN1C(=O)[C@H](C(C)(C)C)NC(=O)OCCC(C)(C)CCCc1ccccc1-c1ccc2cc1)C(=O)NS(=O)(=O)C1CC1 [Example 4]			1 to 3 nM	11 to 20 nM
CO[C@@]12C[C@@H](C(=O)N[C@]3(C(=O)NS(=O)(=O)C4CC4)C[C@H]3C3CC3)N(C1)C(=O)[C@H](C(C)(C)C)NC(=O)OCC(C)(C)CCCCc1ccccc1-c1ccc2cc1 [Example 5]			4 to 7 nM	11 to 20 nM
C=C[C@@H]1C[C@]1(NC(=O)[C@@H]1C[C@]2(OC)CN1C(=O)[C@H](C(C)(C)C)NC(=O)OCC(C)(C)CCCCc1ccccc1-c1ccc2cc1)C(=O)NS(=O)(=O)C1CC1 [Example 6]			1 to 3 nM	5.5 to 10 nM
CO[C@@]12C[C@@H](C(=O)N[C@]3(C(=O)NS(=O)(=O)C4CC4)C[C@H]3C(F)F)N(C1)C(=O)[C@H](C(C)(C)C)NC(=O)OCC(C)(C)CCCCc1ccccc1-c1ccc2cc1 [Example 7]			1 to 3 nM	5.5 to 10 nM
C=C[C@@H]1C[C@]1(NC(=O)[C@@H]1C[C@]2(OC)CN1C(=O)[C@H](C(C)(C)C)NC(=O)OCCCCc1cc2ccc1-c1ccccc1)C(=O)NS(=O)(=O)C1CC1 [Example 8]			8 to 11 nM	21 to 30 nM
C=C[C@@H]1C[C@]1(NC(=O)[C@@H]1C[C@]2(OC)CN1C(=O)[C@H](C(C)(C)C)NC(=O)OCCCCCc1cc2ccc1-c1ccccc1)C(=O)NS(=O)(=O)C1CC1 [Example 9]	4 nM	26 nM		
COc1ccc2c(c1)CCCCC(C)(C)COC(=O)N[C@@H](C(C)(C)C)C(=O)N1C[C@@](OC)(C[C@H]1C(=O)N[C@]1(C(=O)NS(=O)(=O)C3CC3)C[C@H]1C1CC1)c1ccc-2cc1 [Example 13]			4 to 7 nM	
CO[C@@]12C[C@@H](C(=O)N[C@]3(C(=O)NS(=O)(=O)C4CC4)C[C@H]3C3CC3)N(C1)C(=O)[C@H](C(C)(C)C)NC(=O)OCCCCCc1ccccc1-c1ccc2cc1 [Example 14]			8 to 11 nM	
C=C[C@@H]1C[C@]1(NC(=O)[C@@H]1C[C@]2(OC)CN1C(=O)[C@H](C(C)(C)C)NC(=O)OCCCCCc1ccccc1-c1ccc2cc1)C(=O)NS(=O)(=O)C1CC1 [Example 15]			4 to 7 nM	
CO[C@@]12C[C@@H](C(=O)N[C@]3(C(=O)NS(=O)(=O)C4CC4)C[C@H]3C3CC3)N(C1)C(=O)[C@H](C(C)(C)C)NC(=O)OCC(C)(C)CCCc1ccccc1-c1ccc2cc1 [Example 16]			4 to 7 nM	
CO[C@@]12C[C@@H](C(=O)N[C@]3(C(=O)NS(=O)(=O)C4CC4)C[C@H]3C3CC3)N(C1)C(=O)[C@H](C(C)(C)C)NC(=O)OCCCCCCCc1ccccc1-c1ccc2cc1 [Example 18]			1 to 3 nM	
C=C[C@@H]1C[C@]1(NC(=O)[C@@H]1C[C@]2(OC)CN1C(=O)[C@H](C(C)(C)C)NC(=O)OCCCCCCCc1ccccc1-c1ccc2cc1)C(=O)NS(=O)(=O)C1CC1 [Example 19]			1 to 3 nM	
CO[C@@]12C[C@@H](C(=O)N[C@]3(C(=O)NS(=O)(=O)C4CC4)C[C@H]3C3CC3)N(C1)C(=O)[C@H](C(C)(C)C)NC(=O)OCCCCCCc1ccc(Cl)cc1-c1ccc2cc1 [Example 20]			1 to 3 nM	
CO[C@@]12C[C@@H](C(=O)N[C@]3(C(=O)NS(=O)(=O)C4CC4)C[C@H]3C3CC3)N(C1)C(=O)[C@H](C(C)(C)C)NC(=O)OCCCCc1cccc(c1)-c1cccc2c1 [Example 21]			1 to 3 nM	
CO[C@@]12C[C@@H](C(=O)N[C@]3(C(=O)NS(=O)(=O)C4CC4)C[C@H]3C3CC3)N(C1)C(=O)[C@H](C(C)(C)C)NC(=O)OCC(C)(C)CCCCc1cc(N(C)C)ccc1-c1ccc2cc1 [Example 22]			1 to 3 nM	
